Source: patent US20090258917A1 (priority 2005, published 2009)

Molecular target: T1, mPGES-1 (Homo sapiens, UniProt O14684)
T1 construct: made in house; host or cells: E. coli
T1 sequence (O14684 1-152): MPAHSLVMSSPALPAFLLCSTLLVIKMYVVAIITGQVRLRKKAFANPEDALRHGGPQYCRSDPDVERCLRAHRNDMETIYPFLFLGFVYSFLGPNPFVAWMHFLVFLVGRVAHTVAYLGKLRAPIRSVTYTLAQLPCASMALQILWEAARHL
Assay: mPGES-1 assay: conversion of PGH2 to PGE2, PGE2 analysed by HPLC
Format: biochemical
Details: biological test described above; 10 μM or below; read-out: concentration giving 50% inhibition of mPGES-1
Procedure: In the assay mPGES-1 catalyses the reaction where the substrate PGH2 is converted to PGE2. mPGES-1 is expressed in E. coli and the membrane fraction is dissolved in 20 mM NaPi-buffer pH 8.0 and stored at −80° C. […] The stop solution consists of H2O/MeCN (7/3), containing FeCl2 (25 mM) and HCl (0.15 M). The assay is performed at room temperature in 96-well plates.
The following is added chronologically to each well: • 1. 100 μL mPGES-1 in KPi-buffer with glutathione. Total protein concentration: 0.02 mg/mL. • 2. 1 μL inhibitor in DMSO. Incubation of the plate at room temperature for 25 minutes. • 3. 4 μL of a 0.25 mM PGH2 solution. Incubation of the plate at room temperature for 60 seconds. • 4. 100 μL stop solution. • 180 μL per sample is analyzed with HPLC.

Q: How did the IC50 turn out when `CC(C)c1ccc2oc(-c3cccc(NC(=O)c4cc(Cl)ccc4Cl)c3)nc2c1` was run?
A: ≤ 10 µM

Q: For `Cc1cc(C)c2oc(-c3ccc(C)c(NC(=O)c4ccc(Cl)cc4Cl)c3)nc2c1` [2,4-dichloro-N-[2-methyl-5-(5,7-dimethylbenzoxazol-2-yl)phenyl]benzamide], which IC50 is on record?
A: ≤ 10 µM

Q: Which IC50 does the source give for `Cc1cc2nc(-c3cccc(NC(=O)c4cc(Cl)ccc4Cl)c3)oc2cc1C` [2,5-dichloro-N-[3-(5,6-dimethylbemoxazol-2-yl)phenyl]benzamide] here?
A: ≤ 10 µM

Q: How did the IC50 turn out when `O=C(Nc1cccc(-c2nc3cc(Cl)cc(Cl)c3o2)c1)c1ccccc1Br` [2-bromo-N-[3-(5,7-dichlorobenzoxazol-2-yl)phenyl]benzamide] was run?
A: ≤ 10 µM

Q: `Cc1ccc2oc(-c3cccc(NC(=O)c4ccccc4Cl)c3)nc2c1` [2-chloro-N-[3-(5-methylbenzoxazol-2-yl)phenyl]benzamide] was tested. Which IC50 did it give?
A: ≤ 10 µM

Q: `O=C(Nc1ccc(Cl)c(-c2nc3cc(Cl)ccc3o2)c1)c1ccc([N+](=O)[O-])cc1Cl` [2-chloro-N-[4-chloro-3-(5-chlorobenzoxazol-2-yl)phenyl]-4-nitrobenzamide] was tested. Which IC50 did it give?
A: ≤ 10 µM

Q: How did the IC50 turn out when `O=C(Nc1ccc(Cl)c(-c2nc3cc(Cl)ccc3o2)c1)c1ccccc1Cl` [2-chloro-N-[4-chloro-3-(5-chlorobenzoxazol-2-yl)phenyl]benzamide] was run?
A: ≤ 10 µM

Q: Which IC50 does the source give for `CC(C)c1ccc2oc(-c3cc(NC(=O)c4ccccc4Cl)ccc3Cl)nc2c1` [2-chloro-N-[4-chloro-3-(5-isopropylbenzoxazol-2yl)phenyl]benzamide] here?
A: ≤ 10 µM

Q: Which IC50 does the source give for `O=C(Nc1ccc(Cl)c(-c2nc3cc(Cl)ccc3o2)c1)c1ccccc1[N+](=O)[O-]` [N-[4-chloro-3-(5-chlorobenzoxazol-2-yl)phenyl]-2-nitrobenzamide] here?
A: ≤ 10 µM

Q: How did the IC50 turn out when `CC(C)c1ccc2oc(-c3cc(NC(=O)c4ccccc4[N+](=O)[O-])ccc3Cl)nc2c1` [N-[4-chloro-3-(5-isopropylbenzoxazol-2-yl)phenyl]-2-nitrobenzamide] was run?
A: ≤ 10 µM

Q: How did the IC50 turn out when `COc1ccc(C(=O)Nc2ccc(Cl)c(-c3nc4cc(C(C)C)ccc4o3)c2)cc1[N+](=O)[O-]` [N-[4-chloro-3-(5-isopropylbenzoxazol-2-yl)phenyl]-4-methoxy-3-nitrobenzamide] was run?
A: ≤ 10 µM

Q: Which IC50 does the source give for `CC(C)c1ccc2oc(-c3cc(NC(=O)c4cccnc4)ccc3Cl)nc2c1` [N-[4-chloro-3-(5-isopropylbenzoxazol-2-yl)phenyl]nicotinamide] here?
A: ≤ 10 µM

Same assay, conditions: mPGES-1 expressed in E. coli; 25 min preincubation with inhibitor, 60 s with PGH2, room temperature; read-out: IC50

Q: How did the IC50 turn out when `Cc1ccc2oc(-c3cccc(NC(=O)c4ccccc4[N+](=O)[O-])c3)nc2c1` [Example 3, N-[3-(5-Methylbenzoxazol-2-yl)phenyl]-2-nitrobenzamide] was run?
A: 1.9 µM

Q: `Cc1ccc2oc(-c3cc(NC(=O)c4ccccc4OC(F)(F)F)ccc3Cl)nc2c1` [Example 20, N-[4-Chloro-3-(5-methylbenzoxazol-2-yl)phenyl]-2-trifluoromethoxybenzamide] was tested. Which IC50 did it give?
A: 2.3 µM

Q: `Cc1ccc2oc(-c3cc(NC(=O)c4ccccc4F)ccc3Cl)nc2c1` [Example 23, N-[4-Chloro-3-(5-methylbenzoxazol-2-yl)phenyl]-2-fluorobenzamide] was tested. Which IC50 did it give?
A: 2.6 µM
